Converted amounts (≈) assume the structure as drawn. The source made the active and inactive calls. No cut-off for these calls is given here.
Columns and labels:
Acinetobacter baumannii [1] = assay: Antimicrobial activity against Acinetobacter baumannii by microdilution method; type: functional
Acinetobacter baumannii [2] = assay: Antimicrobial activity against Acinetobacter baumannii assessed as susceptible isolates by microdilution method; type: functional
Acinetobacter baumannii [3] = assay: Antimicrobial activity against Acinetobacter baumannii isolate 853 by microdilution method; type: functional
Acinetobacter baumannii [4] = assay: Antimicrobial activity against Acinetobacter baumannii isolate 1198 by microdilution method; type: functional
Acinetobacter baumannii [5] = assay: Antimicrobial activity against Acinetobacter baumannii isolate 1826 by microdilution method; type: functional
Acinetobacter baumannii [6] = assay: Bactericidal activity against Acinetobacter baumannii isolate 1198 at 16 ug/ml after 24 hrs by time kill analysis; type: functional, organism-based
Acinetobacter baumannii [7] = assay: Bactericidal activity against Acinetobacter baumannii isolate 1826 at 8 ug/ml up to 4 hrs by time kill analysis; type: functional, organism-based
Acinetobacter baumannii [8] = assay: Bactericidal activity against Acinetobacter baumannii isolate 1826 at 8 ug/ml after 4 hrs by time kill analysis; type: functional, organism-based
Acinetobacter baumannii [9] = assay: Bactericidal activity against Acinetobacter baumannii isolate 1826 at 2 ug/ml up to 4 hrs by time kill analysis; type: functional, organism-based
Acinetobacter baumannii [10] = assay: Bactericidal activity against Acinetobacter baumannii isolate 1826 at 2 ug/ml after 4 hrs by time kill analysis; type: functional, organism-based
Acinetobacter baumannii [11] = assay: Bactericidal activity against Acinetobacter baumannii isolate 853 at 0.06 ug/ml at 6 hrs by time kill analysis; type: functional, organism-based
Acinetobacter baumannii [12] = assay: Bactericidal activity against Acinetobacter baumannii isolate 1198 at 1 ug/ml after 24 hrs by time kill analysis; type: functional, organism-based
Acinetobacter baumannii [13] = assay: Bactericidal activity against Acinetobacter baumannii isolate 1198 at 2 ug/ml after 24 hrs by time kill analysis; type: functional, organism-based
Acinetobacter baumannii [14] = assay: Antimicrobial activity against Acinetobacter baumannii by microdilution method in presence of beta-lactamase inhibitor Sulbactam; type: functional
Acinetobacter baumannii [15] = assay: Bactericidal activity against Acinetobacter baumannii isolate 853 at 0.5 ug/ml at 6 hrs by time kill analysis; type: functional, organism-based
Acinetobacter baumannii [16] = assay: Antimicrobial activity against Acinetobacter baumannii by microdilution method in presence of beta-lactamase inhibitor Tazobactam; type: functional

Row | Molecule | MIC50 (Acinetobacter baumannii [1]) [µg/mL] | MIC90 (Acinetobacter baumannii [1]) [µg/mL] | Activity (Acinetobacter baumannii [2]) [%] | MIC (Acinetobacter baumannii [3]) [µg/mL] | MIC (Acinetobacter baumannii [4]) [µg/mL] | MIC (Acinetobacter baumannii [5]) [µg/mL] | other results
1 | C[C@H]1COc2c(N3CCN(C)CC3)c(F)cc3c(=O)c(C(=O)O)cn1c23.C[C@H]1COc2c(N3CCN(C)CC3)c(F)cc3c(=O)c(C(=O)O)cn1c23.O [LEVOFLOXACIN] | 8 | 16 | 35 |  |  |  | 
2 | GENTAMICIN | > 32 | > 32 | 16 |  |  |  | 
3 | NCC[C@H](O)C(=O)N[C@@H]1C[C@H](N)[C@@H](O[C@H]2O[C@H](CN)[C@@H](O)[C@H](O)[C@H]2O)[C@H](O)[C@H]1O[C@H]1O[C@H](CO)[C@@H](O)[C@H](N)[C@H]1O [AMIKACIN] | 8 (≈ 13.7 µM) | > 128 | 53 | ≤ 0.5 | > 128 | 2 (≈ 3.42 µM) | Activity (Acinetobacter baumannii [6]): inactive
4 | C[C@@H](O)[C@H]1C(=O)N2C(C(=O)O)=C(SCCNC=N)C[C@H]12 [IMIPENEM ANHYDROUS] | 1 (≈ 3.34 µM) | 16 (≈ 53.4 µM) | 86 |  |  |  | 
5 | CN(C)c1cc(NC(=O)CNC(C)(C)C)c(O)c2c1C[C@H]1C[C@H]3[C@H](N(C)C)C(O)=C(C(N)=O)C(=O)[C@@]3(O)C(O)=C1C2=O [TIGECYCLINE] |  |  |  | 0.12 (≈ 0.205 µM) | 4 (≈ 6.83 µM) | 64 (≈ 109 µM) | MIC (Acinetobacter baumannii [1]): 0.06 µg/mL (≈ 0.102 µM); Activity (Acinetobacter baumannii [7]): Active; Activity (Acinetobacter baumannii [8]): inactive; Activity (Acinetobacter baumannii [9]): Active; Activity (Acinetobacter baumannii [10]): inactive; Activity (Acinetobacter baumannii [11]): inactive; Activity (Acinetobacter baumannii [12]): inactive; Activity (Acinetobacter baumannii [13]): inactive
6 | CC1(C)S[C@@H]2[C@H](NC(=O)[C@H](N)c3ccccc3)C(=O)N2[C@H]1C(=O)O [AMPICILLIN] |  |  | 31 |  |  |  | MIC50 (Acinetobacter baumannii [14]): 16 µg/mL; MIC90 (Acinetobacter baumannii [14]): 128 µg/mL
7 | POLYMYXIN B | 1 | 2 | 99 | 1 | 1 | 2 | Activity (Acinetobacter baumannii [15]): inactive
8 | CC(C)(O/N=C(\C(=O)N[C@@H]1C(=O)N2C(C(=O)[O-])=C(C[n+]3ccccc3)CS[C@H]12)c1csc(N)n1)C(=O)O [CEFTAZIDIME] | 64 (≈ 117 µM) | > 64 | 17 |  |  |  | 
9 | CN(C)c1ccc(O)c2c1C[C@H]1C[C@H]3[C@H](N(C)C)C(O)=C(C(N)=O)C(=O)[C@@]3(O)C(O)=C1C2=O [MINOCYCLINE] | 2 (≈ 4.37 µM) | 8 (≈ 17.5 µM) | 78 |  |  |  | 
10 | CCN1CCN(C(=O)N[C@@H](C(=O)N[C@@H]2C(=O)N3[C@@H]2SC(C)(C)[C@@H]3C(=O)O)c2ccccc2)C(=O)C1=O [PIPERACILLIN] |  |  | 9 |  |  |  | MIC50 (Acinetobacter baumannii [16]): > 128 µg/mL; MIC90 (Acinetobacter baumannii [16]): > 128 µg/mL
